In ChEMBL document CHEMBL1201862, “PubChem BioAssay data set” (2004):
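Cultured in 96-well plates, cells were exposed to test compound for 48 hours across five concentrations. GI50 = concentration required for 50% inhibition of growth.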 Active and inactive are the calls of the source. Cut-off read from the data, not from the text of the source: active = GI50 up to about 1.1 µM and inactive = higher.

Experiments:
Test in all cases: growth of human tumour cells (NCI), 48 h
ACHN = tested on: ACHN
MCF7 = tested on: MCF7
SK-MEL-28 = tested on: SK-MEL-28
OVCAR-8 = tested on: OVCAR-8
NCI-H522 = tested on: NCI-H522
SK-OV-3 = tested on: SK-OV-3
MOLT-4 = tested on: MOLT-4
M14 = tested on: M14
TK-10 = tested on: TK-10
RPMI-8226 = tested on: RPMI-8226
HOP-62 = tested on: HOP-62
A549 = tested on: A549
IGROV-1 = tested on: IGROV-1
A498 = tested on: A498
SK-MEL-2 = tested on: SK-MEL-2
MDA-MB-231 = tested on: MDA-MB-231
LOX IMVI = tested on: LOX IMVI
COLO 205 = tested on: COLO 205
HL-60 = tested on: HL-60

SMILES | GI50 (ACHN) | GI50 (MCF7) | GI50 (SK-MEL-28) | GI50 (OVCAR-8) | GI50 (NCI-H522) | GI50 (SK-OV-3) | GI50 (MOLT-4) | GI50 (M14) | GI50 (TK-10) | GI50 (RPMI-8226) | GI50 (HOP-62) | GI50 (A549) | GI50 (IGROV-1) | GI50 (A498) | GI50 (SK-MEL-2) | GI50 (MDA-MB-231) | GI50 (LOX IMVI) | GI50 (COLO 205) | GI50 (HL-60)
COc1cc2c(cc1O)NC(=S)[C@@H]1CCCN1C2=O | > 100 µM (inactive) | > 100 µM (inactive) | > 100 µM (inactive) | > 100 µM (inactive) | > 100 µM (inactive) | > 100 µM (inactive) | > 100 µM (inactive) | > 100 µM (inactive) | > 100 µM (inactive) | > 100 µM (inactive) | > 100 µM (inactive) | > 100 µM (inactive) | > 100 µM (inactive) | > 100 µM (inactive) | > 100 µM (inactive) | > 100 µM (inactive) | > 100 µM (inactive) | > 100 µM (inactive) | –
COc1c(-c2nc3ccc(N4CCN(C)CC4)nc3[nH]2)cc(OC)c2[nH]c(CO)nc12 | > 100 µM (inactive) | 11.2 µM (inactive) | > 100 µM (inactive) | > 100 µM (inactive) | 52.4 µM (inactive) | > 100 µM (inactive) | 52.2 µM (inactive) | > 100 µM (inactive) | > 100 µM (inactive) | – | 99.5 µM (inactive) | > 100 µM (inactive) | > 100 µM (inactive) | > 100 µM (inactive) | 32 µM (inactive) | 44.1 µM (inactive) | 85.5 µM (inactive) | > 100 µM (inactive) | –
CCCC(=O)OCOC(=O)N(C)/N=N/c1ccc(C(=O)OCC)cc1 | 17.5 µM (inactive) | 17.8 µM (inactive) | 57.7 µM (inactive) | 27.4 µM (inactive) | 17.3 µM (inactive) | 41.5 µM (inactive) | 39.4 µM (inactive) | 24.3 µM (inactive) | 27.9 µM (inactive) | 49.1 µM (inactive) | 29 µM (inactive) | 19.3 µM (inactive) | 32 µM (inactive) | 29.2 µM (inactive) | 15.2 µM (inactive) | 36.5 µM (inactive) | 10.7 µM (inactive) | 18.7 µM (inactive) | –
CC(C)=CCNc1ncnc2c1ncn2CCC(=O)OC(C)(C)C | > 100 µM (inactive) | > 100 µM (inactive) | > 100 µM (inactive) | > 100 µM (inactive) | > 100 µM (inactive) | 26.2 µM (inactive) | 14.2 µM (inactive) | > 100 µM (inactive) | > 100 µM (inactive) | 72.3 µM (inactive) | > 100 µM (inactive) | > 100 µM (inactive) | > 100 µM (inactive) | > 100 µM (inactive) | – | > 100 µM (inactive) | > 100 µM (inactive) | > 100 µM (inactive) | > 100 µM (inactive)
CC(C)C1=C(Cc2ccccc2)C(=O)O/C1=C\c1ccc(O)c(Cl)c1 | 14.9 µM (inactive) | 15.7 µM (inactive) | 16.9 µM (inactive) | 18.3 µM (inactive) | – | 19.5 µM (inactive) | 10.9 µM (inactive) | 17.5 µM (inactive) | 17.7 µM (inactive) | 12.4 µM (inactive) | 17.7 µM (inactive) | 15.1 µM (inactive) | 16.8 µM (inactive) | 17.6 µM (inactive) | – | 16.2 µM (inactive) | 18.4 µM (inactive) | 20.4 µM (inactive) | 15.7 µM (inactive)
CC12CCC(/C(=N/c3cc(C(F)(F)F)cc(C(F)(F)F)c3)C1=O)C2(C)C (stereo not given) | > 100 µM (inactive) | 28.4 µM (inactive) | 25.8 µM (inactive) | 81.5 µM (inactive) | – | > 100 µM (inactive) | 17.4 µM (inactive) | 30.6 µM (inactive) | 37.2 µM (inactive) | 17.8 µM (inactive) | 39.8 µM (inactive) | 31.9 µM (inactive) | 25.2 µM (inactive) | 22.3 µM (inactive) | 18.8 µM (inactive) | 36.9 µM (inactive) | 15.2 µM (inactive) | 19.1 µM (inactive) | 1.04 µM (active)
CC[C@]1(Cc2ccc(OC)c(OC)c2)CN(S(=O)(=O)c2ccc(C)cc2)C[C@@H]1OC(C)=O | > 100 µM (inactive) | > 100 µM (inactive) | > 100 µM (inactive) | 58.7 µM (inactive) | – | 64.6 µM (inactive) | > 100 µM (inactive) | > 100 µM (inactive) | > 100 µM (inactive) | > 100 µM (inactive) | 33 µM (inactive) | 54.8 µM (inactive) | 85.5 µM (inactive) | > 100 µM (inactive) | > 100 µM (inactive) | > 100 µM (inactive) | > 100 µM (inactive) | > 100 µM (inactive) | > 100 µM (inactive)
COc1ccc(-c2cc(O)c3nc4ccccc4n3c2)cc1 | – | > 100 µM (inactive) | > 100 µM (inactive) | > 100 µM (inactive) | > 100 µM (inactive) | – | > 100 µM (inactive) | > 100 µM (inactive) | > 100 µM (inactive) | > 100 µM (inactive) | > 100 µM (inactive) | > 100 µM (inactive) | 71 µM (inactive) | > 100 µM (inactive) | – | > 100 µM (inactive) | > 100 µM (inactive) | > 100 µM (inactive) | > 100 µM (inactive)
CC1(C)Oc2ccc3c(=O)cc(-c4ccccc4)oc3c2C1C(=O)O (stereo not given) | – | > 100 µM (inactive) | – | > 100 µM (inactive) | > 100 µM (inactive) | > 100 µM (inactive) | > 100 µM (inactive) | > 100 µM (inactive) | > 100 µM (inactive) | – | > 100 µM (inactive) | > 100 µM (inactive) | > 100 µM (inactive) | > 100 µM (inactive) | > 100 µM (inactive) | > 100 µM (inactive) | – | > 100 µM (inactive) | > 100 µM (inactive)
O=C1C=CC(=O)c2c1ccc1c3ccccc3n(Cc3ccccc3)c21 | 18.2 µM (inactive) | 17.1 µM (inactive) | 24.4 µM (inactive) | 28.2 µM (inactive) | 14.3 µM (inactive) | > 100 µM (inactive) | 7.55 µM (inactive) | 18 µM (inactive) | 18.6 µM (inactive) | 0.231 µM (active) | > 100 µM (inactive) | > 100 µM (inactive) | 21.6 µM (inactive) | 19.8 µM (inactive) | 31.5 µM (inactive) | 20.3 µM (inactive) | 20 µM (inactive) | 18.9 µM (inactive) | –
O=C1CCC2(O)C3Cc4ccc(Oc5nnnn5-c5ccccc5)c5c4C2(CCN3CC2CC2)C1O5 (stereo not given) | > 100 µM (inactive) | 54 µM (inactive) | 14.9 µM (inactive) | 63.4 µM (inactive) | 23.3 µM (inactive) | > 100 µM (inactive) | 21 µM (inactive) | 18 µM (inactive) | 62.5 µM (inactive) | 28.9 µM (inactive) | > 100 µM (inactive) | > 100 µM (inactive) | > 100 µM (inactive) | 29.8 µM (inactive) | 22.1 µM (inactive) | 58.6 µM (inactive) | 27 µM (inactive) | 17.5 µM (inactive) | –
CCOC(=O)c1c(N2CCOCC2)[nH]c(=O)c(C(c2ccc(N(C)C)cc2)c2c(O)c(C(=O)OCC)c(N3CCOCC3)[nH]c2=O)c1O | > 100 µM (inactive) | > 100 µM (inactive) | > 100 µM (inactive) | > 100 µM (inactive) | > 100 µM (inactive) | > 100 µM (inactive) | > 100 µM (inactive) | > 100 µM (inactive) | > 100 µM (inactive) | 46.6 µM (inactive) | > 100 µM (inactive) | > 100 µM (inactive) | – | > 100 µM (inactive) | > 100 µM (inactive) | > 100 µM (inactive) | 59 µM (inactive) | > 100 µM (inactive) | –
CCCN(CCCc1ccccc1)CCc1ccc2[nH]c(=S)[nH]c2c1 | 29.2 µM (inactive) | 28.2 µM (inactive) | 20.1 µM (inactive) | 28.8 µM (inactive) | – | 53.8 µM (inactive) | 11.3 µM (inactive) | 16.7 µM (inactive) | 71.1 µM (inactive) | 12.4 µM (inactive) | 26.5 µM (inactive) | 34 µM (inactive) | 14.1 µM (inactive) | > 100 µM (inactive) | 19.3 µM (inactive) | 14.7 µM (inactive) | 31.3 µM (inactive) | 16.8 µM (inactive) | –
O=S(=O)(O)CCCC1S(=O)(=O)OCCOS1(=O)=O | > 100 µM (inactive) | > 100 µM (inactive) | > 100 µM (inactive) | > 100 µM (inactive) | > 100 µM (inactive) | > 100 µM (inactive) | – | > 100 µM (inactive) | > 100 µM (inactive) | > 100 µM (inactive) | > 100 µM (inactive) | – | > 100 µM (inactive) | > 100 µM (inactive) | – | > 100 µM (inactive) | > 100 µM (inactive) | > 100 µM (inactive) | > 100 µM (inactive)
CC(O[Si](C)(C)C(C)(C)C)[C@H](NC(=O)OCC(Cl)(Cl)Cl)C(=O)O (stereo not given in full) | 55.1 µM (inactive) | > 100 µM (inactive) | > 100 µM (inactive) | > 100 µM (inactive) | 78 µM (inactive) | > 100 µM (inactive) | > 100 µM (inactive) | – | > 100 µM (inactive) | 84.7 µM (inactive) | > 100 µM (inactive) | > 100 µM (inactive) | > 100 µM (inactive) | > 100 µM (inactive) | – | > 100 µM (inactive) | > 10 µM (inactive) | > 100 µM (inactive) | > 100 µM (inactive)
O=C1/C(=C/c2ccccc2)CCc2ccccc21 | 17.2 µM (inactive) | 5.15 µM (inactive) | 19 µM (inactive) | 25.6 µM (inactive) | – | 25.6 µM (inactive) | 12.2 µM (inactive) | 20.1 µM (inactive) | 15.2 µM (inactive) | 3.11 µM (inactive) | 15.7 µM (inactive) | 22.7 µM (inactive) | 21.4 µM (inactive) | 16.9 µM (inactive) | – | 26.2 µM (inactive) | 16.8 µM (inactive) | 19.6 µM (inactive) | 16.9 µM (inactive)
